Assay [1] concerns rat liver cDNAs SEQ ID NOs: 1-61. The assay is classed as in vivo, Han/Wistar rat. The following applies: Strain HW.
Assay [2] shares this test system. The assay is classed as in vivo, Han/Wistar rat. As to conditions: Strain HW, Sex F.

As for `NN` [Hydra, hydrazine], in assay [1], the “Maximum Abundance, SEQ ID NO 17, Clone ID 700059927” value worked out at 4; the “Maximum Abundance, SEQ ID NO 23, Clone ID 700067778” value turned out to be 3; the “Maximum Abundance, SEQ ID NO 24, Clone ID 700123633” value is 3; the “Maximum Abundance, SEQ ID NO 28, Clone ID 700135850” value is 3. In addition, in assay [1], the “Maximum Abundance, SEQ ID NO 32, Clone ID 700144406” value was determined as 4; the “Maximum Abundance, SEQ ID NO 33, Clone ID 700175249” value worked out at 7; the “Maximum Abundance, SEQ ID NO 61, Clone ID 701637512” value amounted to 4. Also, in assay [2], the “Maximum Abundance, SEQ ID NO 12, Clone ID 700062506” value was 3 and the “Maximum Abundance, SEQ ID NO 13, Clone ID 700135749” value was determined as 4.

For the molecule `CC(=O)Nc1cccc2c1-c1ccccc1C2` [4-AAF, 4-acetylaminofluorene], in assay [1], the “Maximum Abundance, SEQ ID NO 15, Clone ID 700024728” value worked out at 3; the “Maximum Abundance, SEQ ID NO 16, Clone ID 700024834” value worked out at 3; the “Maximum Abundance, SEQ ID NO 19, Clone ID 700062240” value is 5; the “Maximum Abundance, SEQ ID NO 21, Clone ID 700064131” value came out at 3. Moreover, in assay [1], the “Maximum Abundance, SEQ ID NO 22, Clone ID 700065081” value is 3; the “Maximum Abundance, SEQ ID NO 25, Clone ID 700127949” value is given as 3; the “Maximum Abundance, SEQ ID NO 26, Clone ID 700132557” value stood at 7; the “Maximum Abundance, SEQ ID NO 27, Clone ID 700135733” value is given as 4. Further, in assay [1], the “Maximum Abundance, SEQ ID NO 28, Clone ID 700135850” value turned out to be 3; the “Maximum Abundance, SEQ ID NO 30, Clone ID 700140375” value is 3; the “Maximum Abundance, SEQ ID NO 31, Clone ID 700140450” value was 8; the “Maximum Abundance, SEQ ID NO 34, Clone ID 700177158” value was 3. Besides, in assay [1], the “Maximum Abundance, SEQ ID NO 37, Clone ID 700182016” value stood at 3; the “Maximum Abundance, SEQ ID NO 38, Clone ID 700185871” value is on record as 3; the “Maximum Abundance, SEQ ID NO 41, Clone ID 700248367” value is on record as 3; the “Maximum Abundance, SEQ ID NO 43, Clone ID 700253694” value was determined as 3. Further, in assay [1], the “Maximum Abundance, SEQ ID NO 44, Clone ID 700303850” value was 3; the “Maximum Abundance, SEQ ID NO 45, Clone ID 700305380” value is given as 4; the “Maximum Abundance, SEQ ID NO 48, Clone ID 700363174” value came out at 3; the “Maximum Abundance, SEQ ID NO 50, Clone ID 700480077” value is reported as 3. In assay [1], the “Maximum Abundance, SEQ ID NO 51, Clone ID 700483222” value turned out to be 3; the “Maximum Abundance, SEQ ID NO 53, Clone ID 700818852” value is 5; the “Maximum Abundance, SEQ ID NO 54, Clone ID 700937735” value is given as 8; the “Maximum Abundance, SEQ ID NO 57, Clone ID 701341861” value turned out to be 3. For the same molecule, in assay [1], the “Maximum Abundance, SEQ ID NO 58, Clone ID 701574951” value was determined as 3 and the “Maximum Abundance, SEQ ID NO 61, Clone ID 701637512” value was determined as 4. Moreover, the “Maximum Abundance, SEQ ID NO 14, Clone ID 700330824” value in assay [1] (Sex F) stood at 3. Besides, in assay [2], the “Maximum Abundance, SEQ ID NO 12, Clone ID 700062506” value is on record as 3 and the “Maximum Abundance, SEQ ID NO 13, Clone ID 700135749” value is on record as 4.

These data come from patent publication US20030165854A1, “Marker genes responding to treatment with toxins” (priority 2000, published 2003).
